Assay results: US20050267158A1, “Polymorphic and amorphous forms of 2,5-dimethyl-2H-pyrazole-3-carboxylic acid {2-fluoro-5-[3-((E)-2 pyridin-2-YL-vinyl)-1H-indazol-6-ylamino]-phenyl}-amide” (AGOURON PHARMACEUTICALS, INC., priority 2004, published 2005)
≈ marks a conversion by molar mass, not a printed value. Blank lines part the entries; values can stand above or below the compound they belong to.

Legend:
Type in all cases: physicochemical
[1] = Light stability under ICH high intensity light conditions
Description: (§1) The present invention provides several polymorph crystalline forms and an amorphous form of the compound of Formula I. Each crystalline or amorphous form of the compound can be characterized by one or more of the following: X-ray powder diffraction pattern (i.e., X-ray diffraction peaks at various diffraction angles (2θ)), melting point onset (and onset of dehydration for hydrated forms) as illustrated by endotherms of a Differential Scanning Calorimetry (DSC) thermogram, Raman spectral diagram pattern, aqueous solubility, light stability under International Conference on Harmonization (ICH) high intensity light conditions, and physical and chemical storage stability.

Aqueous solubility = conditions: for solubility: thermodynamic from solid
Description: as §1

[2] = Physical and chemical storage stability
Description: as §1

[3] = Hygroscopicity / form conversion under ambient humidity; conditions: for conversion of solid form: ambient humidity
[4] = aqueous medium, pH 2, pH 2, aqueous buffer, pH 2

SMILES: Cc1cc(C(=O)Nc2cc(Nc3ccc4c(/C=C/c5ccccn5)n[nH]c4c3)ccc2F)n(C)n1 [Form II, 2,5-Dimethyl-2H-pyrazole-3-carboxylic acid {2-fluoro-5-[3-((E)-2-pyridin-2-yl-vinyl)-1H-indazol-6-ylamino]-phenyl}-amide]
- light stability [1]: light-stable
- solubility (Aqueous solubility; aqueous medium at pH 2, pH 2, aqueous buffer, pH 2): ~19 µg/mL (≈ 40.6 µM)
- solubility (Aqueous solubility; aqueous medium at pH 7.4, pH 7.4, aqueous buffer, pH 7.4): ~0.7 µg/mL (≈ 1.5 µM)

SMILES: Cc1cc(C(=O)Nc2cc(Nc3ccc4c(/C=C/c5ccccn5)n[nH]c4c3)ccc2F)n(C)n1 [Form I, 2,5-Dimethyl-2H-pyrazole-3-carboxylic acid {2-fluoro-5-[3-((E)-2-pyridin-2-yl-vinyl)-1H-indazol-6-ylamino]-phenyl}-amide]
- light stability [1]: light-stable
- time chemically stable ([2]; 80° C. and 40° C./75% RH): at least 14 days
- solubility (Aqueous solubility; aqueous medium (pH 7.4), pH 7.4, aqueous buffer, pH 7.4): ~0.4 µg/mL (≈ 0.856 µM)
- solubility (Aqueous solubility; [4]): ~39 µg/mL (≈ 83.4 µM)

SMILES: Cc1cc(C(=O)Nc2cc(Nc3ccc4c(/C=C/c5ccccn5)n[nH]c4c3)ccc2F)n(C)n1 [Form Ib, 2,5-Dimethyl-2H-pyrazole-3-carboxylic acid {2-fluoro-5-[3-((E)-2-pyridin-2-yl-vinyl)-1H-indazol-6-ylamino]-phenyl}-amide]
- physical and chemical stability ([2]; 60° C. and 40° C./75% RH): physically and chemically stable for at least three months

SMILES: Cc1cc(C(=O)Nc2cc(Nc3ccc4c(/C=C/c5ccccn5)n[nH]c4c3)ccc2F)n(C)n1 [Form Ibm-2, 2,5-Dimethyl-2H-pyrazole-3-carboxylic acid {2-fluoro-5-[3-((E)-2-pyridin-2-yl-vinyl)-1H-indazol-6-ylamino]-phenyl}-amide]
- conversion of solid form [3]: will convert to Form Ib upon complete hydration

SMILES: Cc1cc(C(=O)Nc2cc(Nc3ccc4c(/C=C/c5ccccn5)n[nH]c4c3)ccc2F)n(C)n1 [Form III, 2,5-Dimethyl-2H-pyrazole-3-carboxylic acid {2-fluoro-5-[3-((E)-2-pyridin-2-yl-vinyl)-1H-indazol-6-ylamino]-phenyl}-amide]
- light stability [1]: light-stable
- aqueous solubility (Aqueous solubility; pH 2): about 10 μg/mL
- aqueous solubility (Aqueous solubility; pH 7.4): about 0.6 μg/mL

Further lines, results first:

- light stability [1]: light-stable
- solubility (Aqueous solubility; [4]): ~7 µg/mL (≈ 15 µM)
SMILES: Cc1cc(C(=O)Nc2cc(Nc3ccc4c(/C=C/c5ccccn5)n[nH]c4c3)ccc2F)n(C)n1 [Form IV, 2,5-Dimethyl-2H-pyrazole-3-carboxylic acid {2-fluoro-5-[3-((E)-2-pyridin-2-yl-vinyl)-1H-indazol-6-ylamino]-phenyl}-amide]

- light stability [1]: light-stable
- solubility (Aqueous solubility; aqueous medium, pH 2, aqueous buffer, pH 2): ~8 µg/mL (≈ 17.1 µM)
- aqueous solubility (Aqueous solubility; pH 7.4): about 0.2 μg/mL
SMILES: Cc1cc(C(=O)Nc2cc(Nc3ccc4c(/C=C/c5ccccn5)n[nH]c4c3)ccc2F)n(C)n1 [Form V, 2,5-Dimethyl-2H-pyrazole-3-carboxylic acid {2-fluoro-5-[3-((E)-2-pyridin-2-yl-vinyl)-1H-indazol-6-ylamino]-phenyl}-amide]

- light stability [1]: light-stable
SMILES: Cc1cc(C(=O)Nc2cc(Nc3ccc4c(/C=C/c5ccccn5)n[nH]c4c3)ccc2F)n(C)n1 [Form Ia, 2,5-Dimethyl-2H-pyrazole-3-carboxylic acid {2-fluoro-5-[3-((E)-2-pyridin-2-yl-vinyl)-1H-indazol-6-ylamino]-phenyl}-amide]

- hygroscopicity [3]: very hygroscopic
- conversion of solid form [3]: readily converted back to Form Ib
SMILES: Cc1cc(C(=O)Nc2cc(Nc3ccc4c(/C=C/c5ccccn5)n[nH]c4c3)ccc2F)n(C)n1 [Form VI, 2,5-Dimethyl-2H-pyrazole-3-carboxylic acid {2-fluoro-5-[3-((E)-2-pyridin-2-yl-vinyl)-1H-indazol-6-ylamino]-phenyl}-amide]
